From patent publication US8575091B1, “Amylin analogues and pharmaceutical compositions thereof” (Novo Nordisk A/S, priority 2012, dated 2013) come the findings set out here.

Entries after “also recorded” stand apart in the source; their conditions may differ. Numbered stars: 1 amine (or outer) side, 2 acyl side, 3 side chain; on linkers, the order of the positions; unused ones are H or OH. Bridge positions count the residues as written; N and C are the ends. Side chains are listed from the residue outwards. Peptide text beside a SMILES is read from it. * marks the point of attachment. C20 diacid = O=C(O)CCCCCCCCCCCCCCCCCCC(=O)*; γGlu = O=C(O)[C@H](CCC(=O)[*:2])N[*:1]

One assay relates to Sprague-Dawley rats. In words: Assay (XI) single subcutaneous administration, food intake monitored for 48 hours in rats. The class given is in vivo, rat. The conditions noted are these: single subcutaneous 30 nmol/kg. As to the method: Assay (XI)—Effect from Single Subcutaneous Administration of Analogue on […] in Rats
Male Sprague-Dawley rats (Taconic Europe, ˜250 g at test date) were acclimatized to reversed day light cycle (lights on from 10 PM to 10 AM) and single housing in online food intake monitoring system (Ellegaard MBRose, Denmark) prior to study start. Rats were divided in groups of five and subcutaneously dosed with test compound (30 nmol/kg) and food intake was monitored for 48 hours hereafter. Data are illustrated in graphs as mean±SEM.

Another assay deals with Wistar rats. In words: Assay (XII) single subcutaneous administration, plasma calcium in rats. The assay is classed as in vivo, rat. The conditions noted are these: for Plasma calcium red (%) 0-12 h: single s.c., maximal reduction 0-12 h, compared to vehicle; for suppression of plasma calcium level relative to vehicle: single subcutaneous, over 24 hours. The method, then: Assay (XII)—Effect from Single Subcutaneous Administration of Analogue on Plasma Calcium in Rats
Male Wistar rats (Taconic Europe, ˜250 g at test date) were acclimatized to handling prior to the study. Rats were divided in groups of five and subcutaneously dosed with test compound at time=0. At time T=−15 min; 1 h, 2 h, 4 h, 7 h, 12 h, and 24 h a blood sample was obtained and heparin stabilized plasma was analysed for total calcium (Cobas, Hitachi). Data are illustrated in graphs as mean±SEM.

The next assay concerns the target T1, human amylin receptor (Homo sapiens, UniProt O60896+P30988).
T1 construct: expressed in transfected cells
T1 sequence (P30988 25-474): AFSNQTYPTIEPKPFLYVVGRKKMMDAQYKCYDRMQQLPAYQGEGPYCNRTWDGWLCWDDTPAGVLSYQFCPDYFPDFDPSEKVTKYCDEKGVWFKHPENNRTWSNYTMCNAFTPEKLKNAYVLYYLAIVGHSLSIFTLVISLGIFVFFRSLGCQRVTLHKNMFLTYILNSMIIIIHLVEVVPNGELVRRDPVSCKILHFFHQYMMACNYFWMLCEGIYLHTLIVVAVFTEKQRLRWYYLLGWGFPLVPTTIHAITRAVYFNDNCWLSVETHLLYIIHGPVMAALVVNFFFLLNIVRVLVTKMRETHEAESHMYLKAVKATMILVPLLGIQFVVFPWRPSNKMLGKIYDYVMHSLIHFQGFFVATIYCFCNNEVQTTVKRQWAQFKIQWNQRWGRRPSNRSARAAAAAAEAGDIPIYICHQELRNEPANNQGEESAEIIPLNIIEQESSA
T1 sequence (O60896 24-148 partner): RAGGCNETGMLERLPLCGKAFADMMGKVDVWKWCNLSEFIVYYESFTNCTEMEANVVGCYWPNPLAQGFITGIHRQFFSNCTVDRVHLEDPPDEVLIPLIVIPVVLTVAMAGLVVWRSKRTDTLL
The assay is described as follows: Assay (V) binding to the human amylin receptor (SPA, 125I-rat amylin). The essentials: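 SPA competition binding on membranes from Amylin 3(a)/CRE-luc cells, 35 ng/μL membranes with 0.05 mg/well beads. Buffer 50 mM Hepes pH 7.4, 1 mM CaCl2, 5 mM MgCl2, 0.1% OA, 0.02% Tween20. IC50 from one-site competition fit as affinity measure.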

With `CC[C@H](C)[C@H](NC(=O)[C@H](C)NC(=O)CNC(=O)[C@H](Cc1ccccc1)NC(=O)[C@H](CC(N)=O)NC(=O)[C@@H]1CCCN1C(=O)[C@H](CO)NC(=O)[C@H](CO)NC(=O)[C@H](Cc1c[nH]cn1)NC(=O)[C@H](CCCNC(=N)N)NC(=O)[C@H](CC(C)C)NC(=O)[C@H](Cc1ccccc1)NC(=O)[C@H](CC(N)=O)NC(=O)[C@H](C)NC(=O)[C@H](CC(C)C)NC(=O)[C@H](CCCNC(=N)N)NC(=O)[C@H](CCC(N)=O)NC(=O)[C@@H](NC(=O)[C@H](C)NC(=O)[C@@H]1CSSC[C@H](NC(=O)[C@@H](N)CCCCNC(=O)CC[C@H](NC(=O)CC[C@H](NC(=O)CCCCCCCCCCCCCCCCCCC(=O)O)C(=O)O)C(=O)O)C(=O)N[C@@H](CC(N)=O)C(=O)N[C@@H]([C@@H](C)O)C(=O)N[C@@H](C)C(=O)N[C@@H]([C@@H](C)O)C(=O)N1)[C@@H](C)O)C(=O)N1CCC[C@H]1C(=O)N[C@@H](CO)C(=O)N[C@@H](CO)C(=O)N[C@H](C(=O)N[C@@H](CC(N)=O)C(=O)N[C@H](C(=O)NCC(=O)N[C@@H](Cc1c[nH]cn1)C(=O)N[C@@H](CC(N)=O)C(=O)N[C@H](C(=O)N[C@@H](Cc1ccc(O)cc1)C(N)=O)[C@@H](C)O)C(C)C)[C@@H](C)O` [Example 86] (H-K([γGlu-γGlu-C20 diacid])CNTATCATQRLANFLRHSSPNFGAIPSSTNVGHNTY-NH2; disulfide 2-7 (inferred); N-terminus and C-terminus assumed), in the assay with Sprague-Dawley rats, the “food intake monitored over 48 hours versus vehicle” value was “reduces food intake in rats”. In addition, the “Plasma calcium red (%) 0-12 h” value in the assay with Wistar rats (30 nmol/kg) turned out to be 0%. For the same molecule, the “suppression of plasma calcium level relative to vehicle” value with Wistar rats (increasing doses (all doses tested)) is recorded as “None of the doses trigger a notable suppression of the calcium level”.

For `CC[C@H](C)[C@H](NC(=O)[C@H](C)NC(=O)CNC(=O)[C@H](Cc1ccccc1)NC(=O)[C@H](CC(N)=O)NC(=O)[C@@H]1CCCN1C(=O)[C@H](CO)NC(=O)[C@H](CO)NC(=O)[C@H](Cc1c[nH]cn1)NC(=O)[C@H](CCCNC(=N)N)NC(=O)[C@H](CC(C)C)NC(=O)[C@H](Cc1ccccc1)NC(=O)[C@H](CCC(=O)O)NC(=O)[C@H](C)NC(=O)[C@H](CC(C)C)NC(=O)[C@H](CCCNC(=N)N)NC(=O)[C@H](CCC(N)=O)NC(=O)[C@@H](NC(=O)[C@H](C)NC(=O)[C@@H]1CSSC[C@H](NC(=O)[C@@H](N)CCCCNC(=O)CC[C@H](NC(=O)CC[C@H](NC(=O)CCCCCCCCCCCCCCCCCCC(=O)O)C(=O)O)C(=O)O)C(=O)N[C@@H](CC(N)=O)C(=O)N[C@@H]([C@@H](C)O)C(=O)N[C@@H](C)C(=O)N[C@@H]([C@@H](C)O)C(=O)N1)[C@@H](C)O)C(=O)N1CCC[C@H]1C(=O)N[C@@H](CO)C(=O)N[C@@H](CO)C(=O)N[C@H](C(=O)N[C@@H](CC(N)=O)C(=O)N[C@H](C(=O)NCC(=O)N[C@@H](CO)C(=O)N[C@@H](CCCNC(=N)N)C(=O)N[C@H](C(=O)N[C@@H](Cc1ccc(O)cc1)C(N)=O)[C@@H](C)O)C(C)C)[C@@H](C)O` [Example 89] (H-K([γGlu-γGlu-C20 diacid])CNTATCATQRLAEFLRHSSPNFGAIPSSTNVGSRTY-NH2; disulfide 2-7 (inferred); N-terminus and C-terminus assumed), the “Ratio hCT/hAmylin binding” value at human amylin receptor (Table 7b, human calcitonin receptor binding IC50 divided by human amylin receptor binding IC50) was determined as 28.0; on human amylin receptor (Table 7c, human calcitonin receptor binding IC50 divided by human amylin receptor binding IC50), 28.0; at human amylin receptor (human binding ratio, included for comparison), 28.0. In addition, in the assay on Sprague-Dawley rats, the “food intake monitored over 48 hours versus vehicle” value was “reduce food intake in rats”. In addition, the “Plasma calcium red (%) 0-12 h” value with Wistar rats (30 nmol/kg) stood at 7%. The “suppression of plasma calcium level relative to vehicle” value in the assay with Wistar rats (30 nmol/kg) is “None of the example compounds at 30 nmol/kg trigger a notable suppression of the calcium level”; with Wistar rats (1000 nmol/kg), “more pronounced suppression of the calcium level”.

`CC[C@H](C)[C@H](NC(=O)[C@H](C)NC(=O)CNC(=O)[C@H](Cc1ccccc1)NC(=O)[C@H](CC(N)=O)NC(=O)[C@@H]1CCCN1C(=O)[C@H](CO)NC(=O)[C@H](CO)NC(=O)[C@H](Cc1c[nH]cn1)NC(=O)[C@H](CCCNC(=N)N)NC(=O)[C@H](CC(C)C)NC(=O)[C@H](Cc1ccccc1)NC(=O)[C@H](CCC(=O)O)NC(=O)[C@H](C)NC(=O)[C@H](CC(C)C)NC(=O)[C@H](CCCNC(=N)N)NC(=O)[C@H](CCC(N)=O)NC(=O)[C@@H](NC(=O)[C@H](C)NC(=O)[C@@H]1CSSC[C@H](NC(=O)[C@@H](N)CCCCNC(=O)CC[C@H](NC(=O)CC[C@H](NC(=O)CCCCCCCCCCCCCCCCCCC(=O)O)C(=O)O)C(=O)O)C(=O)N[C@@H](CC(N)=O)C(=O)N[C@@H]([C@@H](C)O)C(=O)N[C@@H](C)C(=O)N[C@@H]([C@@H](C)O)C(=O)N1)[C@@H](C)O)C(=O)N1CCC[C@H]1C(=O)N[C@@H](CO)C(=O)N[C@@H](CO)C(=O)N[C@H](C(=O)N[C@@H](CC(N)=O)C(=O)N[C@H](C(=O)NCC(=O)N1CCC[C@H]1C(=O)N[C@@H](CCCNC(=N)N)C(=O)N[C@H](C(=O)N[C@@H](Cc1ccc(O)cc1)C(N)=O)[C@@H](C)O)C(C)C)[C@@H](C)O` [Example 110] (H-K([γGlu-γGlu-C20 diacid])CNTATCATQRLAEFLRHSSPNFGAIPSSTNVGPRTY-NH2; disulfide 2-7): the “food intake monitored over 48 hours versus vehicle” value with Sprague-Dawley rats was “reduces food intake in rats”. Besides, in the assay with Wistar rats (30 nmol/kg), the “Plasma calcium red (%) 0-12 h” value is listed as 8% and the “suppression of plasma calcium level relative to vehicle” value was “None of the example compounds at 30 nmol/kg trigger a notable suppression of the calcium level”.

For `CC(C)C[C@H](NC(=O)[C@H](CCCCN)NC(=O)CNC(=O)[C@H](CC(C)C)NC(=O)[C@@H](NC(=O)[C@@H]1CSSC[C@H](N)C(=O)N[C@@H](CO)C(=O)N[C@@H](CC(N)=O)C(=O)N[C@@H](CC(C)C)C(=O)N[C@@H](CO)C(=O)N[C@@H]([C@@H](C)O)C(=O)N1)C(C)C)C(=O)N[C@@H](CO)C(=O)N[C@@H](CCC(N)=O)C(=O)N[C@@H](CCC(=O)O)C(=O)N[C@@H](CC(C)C)C(=O)N[C@@H](Cc1c[nH]cn1)C(=O)N[C@@H](CCCCN)C(=O)N[C@@H](CC(C)C)C(=O)N[C@@H](CCC(N)=O)C(=O)N[C@H](C(=O)N[C@@H](Cc1ccc(O)cc1)C(=O)N1CCC[C@H]1C(=O)N[C@@H](CCCNC(=N)N)C(=O)N[C@H](C(=O)N[C@@H](CC(N)=O)C(=O)N[C@H](C(=O)NCC(=O)N[C@@H](CO)C(=O)NCC(=O)N[C@H](C(=O)N1CCC[C@H]1C(N)=O)[C@@H](C)O)[C@@H](C)O)[C@@H](C)O)[C@@H](C)O` [salmon calcitonin, reference compound], in the assay on Sprague-Dawley rats, the “food intake monitored over 48 hours versus vehicle” value is “reduction of food intake; also recorded: reduces food intake in rats”. Besides, the “Plasma calcium red (%) 0-12 h” value is given as 35% with Wistar rats (3 nmol/kg) and 39% in the assay with Wistar rats (30 nmol/kg).
